These results are taken from US20040213751A1, “Augmentation of pyrithione activity or a polyvalent metal salt of pyrithione activity by zinc-containing layered material” (priority 2003, published 2004).

The assay relates to Malassezia furfur (ATCC 14521). Nature of the assay: Minimum inhibitory concentration (MIC) of ZPT in mDixon agar, with and without augmenting material. The class given is cell-based. An excerpt:
In some cases, materials can augment the activity of antifungal actives. As used herein, the term augmentation is intended to mean enhancement of the antifungal activity of a ZPT-containing composition by the augmenting material to an extent sufficient to permit the use of a lower amount of ZPT without reducing the antifungal inhibition provided by the composition, as compared to the antifungal inhibition that is provided by an otherwise-identical ZPT-containing composition that is free of the augmenting material. Augmenting agents are generally specific to the material being augmented, forming a unique combination and often because there is a specific chemical or biological mechanism required to achieve the augmentation effect. ^1 The Minimum Inhibitory Concentration is indicative of anti-fungal efficacy. Generally, the lower the value of the composition, the better its anti-fungal efficacy, due to increased inherent ability of the anti-dandruff agent to inhibit the growth of microorganisms.
An “augmentation factor” is defined, which is the ratio of the MIC with and without an augmenting agent (at a specified concentration): [formula]
Dilutions of solubilized anti-microbial active were then added to test tubes containing molten mDixon agar. M. furfur inoculum was added to each tube of molten agar, the tube vortexed, and the contents poured into separate sterile petri dishes. […] The lowest tested dilution of anti-microbial active that yields no growth is defined as the Minimal Inhibitory Concentration (MIC).
1) Malassezia furfur was grown in a 250 ml Erlenmeyer flask containing 100 mil “mDIXON” medium at 320 rpm and 30° C. until turbid.
2) Selected dilutions were prepared using an appropriate dilution series, of the anti-microbial active or combination in solvent, which allowed the sample active to be solubilized prior to addition to the final test agar. For each concentration of the ZPT samples, the solvent was “DMSO”; for other samples, the solvent was water or “DMSO” or other suitable solvent.
3) 0.25 ml dilutions of anti-microbial active were added to test tubes containing 9.5 ml molten “mDIXON” agar (held at 45° C. in a water bath).
4) 0.25 M. furfur inoculum (adjusted to 5×10^5 cfu/ml by direct count) was added to each test tube of molten agar.
5) Each tube was vortexed, and the contents poured into separate petri dishes.
6) After the agar solidified, the plates inverted and incubated at 30° for 5 days.
7) The plates were then observed for visible M. furfur growth.

In the case of `[O-]n1ccccc1=S.[O-]n1ccccc1=S.[Zn+2]` [ZPT, zinc salt of 1-hydroxy-2-pyridinethione], the MIC of ZPT alone (Malassezia furfur, mDixon agar, 30° for 5 days, no augmenting material) came out at 8 ppm.
For Zinc Stearate, the “Augmentation Benefit” value (5 ppm augmenting material, effective agent has augmentation factor greater than 1) was “No”. Also, the MIC of ZPT with 5 ppm augmenting material (Malassezia furfur, mDixon agar, 30° for 5 days, 5 ppm of the named augmenting material) was 8 ppm. For the same compound, the “Augmentation Factor” value (ratio of the MIC of ZPT without and with 5 ppm augmenting material) is reported as 1.0.
